Columns and labels:
retinal blood vessels = test: Pharmacological Test 1: retinal vasodilatory action (retinal vascular diameter from fundus images) after intravitreal administration to rabbits; type: in vivo, rabbit; details: for Base-Corrected Retinal Vascular Diameter Change Rate (%) 1 Hour After Administration / Base-Corrected Retinal Vascular Diameter Change Rate (%) 2 Hours After Administration / Base-Corrected Retinal Vascular Diameter Change Rate (%) 6 Hours After Administration / Base-Corrected Retinal Vascular Diameter Change Rate (%) 24 Hours After Administration: 20 μL intravitreal single injection, pigmented rabbits
Procedure: In order to find a new medicinal use of omidenepag, an ester thereof, or a salt thereof, the retinal vasodilatory action in the case of administering omidenepag to rabbits was examined. Omidenepag at 4.01 mg was dissolved in dimethyl sulfoxide to a total volume of 129 μL. Of the total volume, 10 μL was added and dissolved into physiological saline, and an appropriate amount of sodium hydroxide solution was added to adjust the pH of the formulation to 6.2. Thereafter, physiological saline was further added to a total volume of 10 mL to obtain omidenepag sample 1 (containing 0.00311% (w/v) (31.1 μg/mL) of omidenepag). In addition, the base A was added to 0.1 mL of omidenepag sample 1 to a total volume of 10 mL, and omidenepag sample 2 was obtained (containing 0.0000311% (w/v) (0.311 μg/mL) of omidenepag). CP-544326 (EP2 agonist) at 5.98 mg was dissolved in dimethyl sulfoxide to a total volume of 192 μL. Of the total volume, 10 μL was added and dissolved into physiological saline, and sodium hydroxide solution was added to adjust the pH of the formulation to 6.5. Thereafter, physiological saline was further added to a total volume of 10 mL to obtain CP-544326 sample 1 (containing 0.00311% (w/v) (31.1 μg/mL) of CP-544326). In addition, the base A was added to 0.1 mL of CP-544326 sample 1 to a total volume of 10 mL, and CP-544326 sample 2 was obtained (containing 0.0000311% (w/v) (0.311 μg/mL) of CP-544326). The base A, omidenepag samples 1 and 2, and CP-544326 samples 1 and 2 as test compound solutions, each at 20 μL, were administered intravitreally (injection, single time) to examine the change in retinal vascular diameter. In addition, pigmented rabbits (strain: Dutch, sex: male, three animals per group) were used as experimental animals. 1) After holding the above experimental animals, one drop (about 0.03 mL) of a 0.4% tropicamide ophthalmic solution (trade name: Mydrin-M ophthalmic solution 0.4%) was instilled into the retinal vascular diameter measurement eye to fully dilate the pupil. Thereafter, fundus images of the measurement eyes were captured, and the retinal vascular diameters and the like immediately before administration were measured from the obtained fundus images. 2) One drop (about 0.03 mL) of a 0.4% oxybuprocaine hydrochloride ophthalmic solution (trade name: Benoxil ophthalmic solution 0.4%) was instilled into the retinal vascular diameter measurement eye of each experimental animal for local anesthesia. Thereafter, a microsyringe connected with a 30 G injection needle was used to administer 20 μL of each test compound solution into the vitreous body. 3) At 1 hour, 2 hours, 6 hours, and 24 hours after administration of each test compound solution, fundus images of the retinal vascular diameter measuring eyes were captured, and the retinal vascular diameters and the like were measured from the obtained fundus images. (a) The fundus images captured immediately before the administration, 1 hour, 2 hours, 6 hours, and 24 hours after the administration were used to measure, as the vascular diameters, (i) the vascular diameter of the retinal artery on the nose side, (ii) the vascular diameter of the retinal artery on the ear side, and (iii) the optic nerve head diameter (longitudinal diameter passing through the center of the optic nerve head). (b) The average value of (i) the vascular diameter of the retinal artery on the nose side and (ii) the vascular diameter of the retinal artery on the ear side measured from the fundus images for each time period was divided by (iii) the optic nerve head diameter to calculate the corrected retinal vascular diameter. […]

[1] = system: optic nerve head tissue blood flow; test: Pharmacological Test 3: optic nerve head tissue blood flow (laser speckle flowgraphy) after intravitreal administration to rabbits; type: in vivo, rabbit
Procedure: In order to find anew medicinal use of omidenepag, an ester thereof, or a salt thereof, the action of increasing tissue blood flow in the optic nerve head in the case of administering omidenepag to rabbits was examined.
Omidenepag at 3.99 to 4.03 mg was dissolved in dimethyl sulfoxide to a total volume of 128 to 130 μL. Of the total volume, 10 μL was added and dissolved into physiological saline, and an appropriate amount of sodium hydroxide solution was added to adjust the pH of the formulation to 6.3 to 7.2. Thereafter, physiological saline was further added to a total volume of 10 mL to obtain omidenepag sample 3 (containing 0.00311% (w/v) (31.1 μg/mL) of omidenepag).
The base C and omidenepag sample 3 as test compound solutions, each at 20 μL, were administered intravitreally (injection, single time) to examine the change in optic nerve head tissue blood flow. In addition, pigmented rabbits (strain: Dutch, sex: male, three animals per group) were used as experimental animals. […]
3) At 1 hour and 2 hours after administration of each test compound solution, the optic nerve head tissue blood flow of the optic nerve head tissue blood flow measurement eye was measured.
(a) The ratio of the optic nerve head tissue blood flow after passage of each of the time periods of 1 hour and 2 hours after administration to the optic nerve head tissue blood flow immediately before administration (optic nerve head tissue blood flow change rate (%)) was calculated. […]
(b) For each time period after administration, the difference (base-corrected optic nerve head tissue blood flow change rate (%)) was calculated between the optic nerve head tissue blood flow change rate (%) of the group administered with the base C simultaneously carried out and the optic nerve head tissue blood flow change rate (%) of the group administered with omidenepag sample 3. […]

Row | Structure (SMILES) | Base-Corrected Retinal Vascular Diameter Change Rate (%) 1 Hour After Administration (retinal blood vessels; 0.0000311% (w/v) (0.311 μg/mL)) | Base-Corrected Retinal Vascular Diameter Change Rate (%) 2 Hours After Administration (retinal blood vessels; 0.0000311% (w/v) (0.311 μg/mL)) | Base-Corrected Retinal Vascular Diameter Change Rate (%) 6 Hours After Administration (retinal blood vessels; 0.0000311% (w/v) (0.311 μg/mL)) | Base-Corrected Retinal Vascular Diameter Change Rate (%) 24 Hours After Administration (retinal blood vessels; 0.0000311% (w/v) (0.311 μg/mL)) | Base-Corrected Retinal Vascular Diameter Change Rate (%) 1 Hour After Administration (retinal blood vessels; 0.00311% (w/v) (31.1 μg/mL)) | Base-Corrected Retinal Vascular Diameter Change Rate (%) 2 Hours After Administration (retinal blood vessels; 0.00311% (w/v) (31.1 μg/mL)) | Base-Corrected Retinal Vascular Diameter Change Rate (%) 6 Hours After Administration (retinal blood vessels; 0.00311% (w/v) (31.1 μg/mL)) | Base-Corrected Retinal Vascular Diameter Change Rate (%) 24 Hours After Administration (retinal blood vessels; 0.00311% (w/v) (31.1 μg/mL)) | retinal vasodilatory action compared with CP-544326 (in words) (retinal blood vessels; at the same concentration, intravitreal, rabbits) | Base-Corrected Optic Nerve Head Tissue Blood Flow Change Rate (%) 1 Hour After Administration ([1]; 0.00311% (w/v) (31.1 μg/mL), 20 μL intravitreal single injection, pigmented rabbits, 1 hour) | Base-Corrected Optic Nerve Head Tissue Blood Flow Change Rate (%) 2 Hours After Administration ([1]; 0.00311% (w/v) (31.1 μg/mL), 20 μL intravitreal single injection, pigmented rabbits, 2 hours) | blood flow increasing action, optic nerve head (in words) ([1]; intravitreal administration, rabbits)
1 | O=C(O)COc1cccc(CN(Cc2ccc(-n3cccn3)cc2)S(=O)(=O)c2cccnc2)c1 [CP-544326, reference compound] | 14.8% | 9.0% | 0.8% | 3.5% | 48.4% | 57.5% | 72.2% | 3.7% | – | – | – | –
2 | O=C(O)CNc1cccc(CN(Cc2ccc(-n3cccn3)cc2)S(=O)(=O)c2cccnc2)n1 [Omidenepag, (6-{[4-(pyrazol-1-yl)benzyl](pyridin-3-ylsulfonyl)aminomethyl}pyridin-2-ylamino)acetic acid] | 35.8% | 35.4% | 22.3% | 2.9% | 81.2% | 71.9% | 88.1% | 11.8% | significantly stronger retinal vasodilatory action | 343.6% | 327.8% | significantly strong blood flow increasing action
